The values that follow come from PMC5218480 (PLoS ONE, 2017).

This test relates to MV-4-11 cells. Description: Gene expression microarray analysis (Affymetrix PrimeView) and GSEA. In kind it is cell-based, human. Particulars: gene VPS36, vacuolar protein sorting 36 homolog; Azacitidine 1 mM; LIST F.

For the molecule `Nc1ncn([C@@H]2O[C@H](CO)[C@@H](O)[C@H]2O)c(=O)n1` [azacitidine], the “RFU, VPS36 (ProbeSet 11739960_a_at)” value came to 118.04 RFU.
